The values that follow come from patent US20250388542A1, “ANALOGUES OF PENTAMIDINE AND USES THEREFOR” (Auransa Inc., priority 2018, published 2025).

Common to all, as to type: cell-based
For one assay, the system named is NCI-H209. The assay is described as follows: CellTiter-Glo luminescent cell viability assay. To be noted: Homo sapiens. As for the experimental part:
(§1) The objective of this study is to investigate potential cell killing effect of Compounds 1-15 on 3 cancer cell lines. 50% inhibition concentration (IC50) was determined for these compounds in various cancer cell lines using CellTiter-Glo™ luminescent cell viability assay at different compound concentrations. Each cell line (e.g., NCI-H209; NCI-H69; and SW1271) was treated with Compounds 1-15 and culture medium contains 0.2% [v/v] DMSO vehicle control. All the cells were cultured in the media supplemented with 10-20% fetal bovine serum at 37° C., 5% CO2 and 95% humidity.
For orientation: In ATP-based viability assays light output follows the ATP content of the culture.

In a further assay the test system is NCI-H69. The assay is described as follows: CellTiter-Glo luminescent cell viability assay. To be noted: Homo sapiens. On the procedure: as §1
The subject of a further assay is A498. The assay is described as follows: CellTiter-Glo cytotoxicity, cancer cell line panel. To be noted: Homo sapiens; A498, Renal cell carcinoma. On the procedure: as §1
(§2) The objective of this study is to investigate the effect of Compound 1 on cytotoxicity against 61 different types of cancer cell lines. IC50 were values were obtained using CellTiter-Glo™ as described above. Each cell line shown in Table 3 was treated with Compound 1, a standard chemotherapy drug, cisplatin, as reference control and culture medium contains 0.2% [v/v] DMSO vehicle control. All cancer cell lines were cultured in media supplemented with 10-20% fetal bovine serum at 37° C., 5% CO2 and 95% humidity.

In the next assay the test system is A549. The assay is described as follows: CellTiter-Glo cytotoxicity, cancer cell line panel. The note with it: Homo sapiens; A549, Lung adenocarcinoma. On the procedure: as §1, §2
The subject of a further assay is ACHN. Put plainly: CellTiter-Glo cytotoxicity, cancer cell line panel. The note with it: Homo sapiens, Papillary renal cell carcinoma. On the procedure: as §1, §2
Another assay deals with Caki-1. The assay is described as follows: CellTiter-Glo cytotoxicity, cancer cell line panel. To be noted: Homo sapiens; Caki-1, Clear cell renal cell carcinoma. As for the experimental part: as §1, §2
The test system of another assay is DLD-1. Put plainly: CellTiter-Glo cytotoxicity, cancer cell line panel. The note with it: Homo sapiens; DLD-1, Colon adenocarcinoma. On the procedure:
as §1, §2

The subject of a further assay is HCT 116. The assay is described as follows: CellTiter-Glo cytotoxicity, cancer cell line panel. To be noted: Homo sapiens; HCT 116, Colon carcinoma. As for the experimental part:
as §1, §2

For the next assay, the system named is HLE. The assay is described as follows: CellTiter-Glo cytotoxicity, cancer cell line panel. The note with it: Homo sapiens, Hepatocellular carcinoma. On the procedure: as §1, §2
Another assay concerns HUH-1. The assay is described as follows: CellTiter-Glo cytotoxicity, cancer cell line panel. To be noted: Homo sapiens; HUH-1, Hepatocellular carcinoma. On the procedure: as §1, §2
The next assay deals with HUH-6 CLONE5. Put plainly: CellTiter-Glo cytotoxicity, cancer cell line panel. The note with it: HUH-6 CLONE5, Hepatoblastoma carcinoma. On the procedure:
as §1, §2

The next assay has as its system HUH-7. The assay is described as follows: CellTiter-Glo cytotoxicity, cancer cell line panel. To be noted: Homo sapiens; HUH-7, Hepatocellular carcinoma. As for the experimental part:
as §1, §2

The test system of another assay is Hep3B. Put plainly: CellTiter-Glo cytotoxicity, cancer cell line panel. To be noted: Homo sapiens, Hepatocellular carcinoma. As for the experimental part:
as §1, §2

Another assay relates to JHH-4. The assay is described as follows: CellTiter-Glo cytotoxicity, cancer cell line panel. To be noted: JHH-4, Hepatocellular carcinoma. As for the experimental part:
as §1, §2

In a further assay the test system is JHH-5. The assay is described as follows: CellTiter-Glo cytotoxicity, cancer cell line panel. To be noted: JHH-5, Hepatocellular carcinoma. On the procedure: as §1, §2
Another assay has as its system LN-229. Put plainly: CellTiter-Glo cytotoxicity, cancer cell line panel. To be noted: Homo sapiens; LN-229, Glioblastoma. As for the experimental part: as §1, §2
Another assay concerns Li-7. The assay is described as follows: CellTiter-Glo cytotoxicity, cancer cell line panel. The note with it: Li-7, Hepatocellular carcinoma. On the procedure:
as §1, §2

In the next assay the test system is MKN45. The assay is described as follows: CellTiter-Glo cytotoxicity, cancer cell line panel. The note with it: Homo sapiens, MKN-45; MKN45, Gastric adenocarcinoma. On the procedure:
as §1, §2

The next assay relates to OS-RC-2. The assay is described as follows: CellTiter-Glo cytotoxicity, cancer cell line panel. The note with it: Homo sapiens; OS-RC-2, Renal cell carcinoma. As for the experimental part:
as §1, §2

Another assay relates to SK-OV-3. Put plainly: CellTiter-Glo cytotoxicity, cancer cell line panel. To be noted: Homo sapiens; SK-OV-3, Ovarian serous cystadenocarcinoma. On the procedure: as §1, §2
For another assay, the system named is SNU-398. Put plainly: CellTiter-Glo cytotoxicity, cancer cell line panel. To be noted: Homo sapiens; SNU-398, Hepatocellular carcinoma. As for the experimental part: as §1, §2
A further assay relates to SW 156. The assay is described as follows: CellTiter-Glo cytotoxicity, cancer cell line panel. The note with it: SW 156, Renal cell carcinoma. On the procedure:
as §1, §2

A further assay deals with U-87 MG. Put plainly: CellTiter-Glo cytotoxicity, cancer cell line panel. To be noted: Homo sapiens, Glioblastoma. As for the experimental part: as §1, §2
The next assay has as its system Hep3B-luc. The assay is described as follows: CellTiter-Glo cell viability, liver cell lines, 8 days. To be noted: Hep 3B-Luc, 192 h, full growth media. On the procedure:
The objective of this study is to investigate the effect of Compound 1 on cell viability of various types of liver cancer. Ten (10) different liver cancer cell lines were employed in the study. Each liver cell line shown in Table 4 was treated with Compound 1, pentamidine, as reference control, a standard of care (cisplatin) and culture medium contains 0.2% [v/v] DMSO vehicle control and IC50 values were obtained as described above. The raw data values from the CellTiter-Glo™ cell viability assay expressed in relative luminescence units were normalized to the vehicle for each individual plate, and any reduction in luminescence indicated a decrease in viability (%). The data was analyzed in GraphPad PRISM using a non-linear sigmoidal plot with variable slope (asymmetric four-point linear regression), and an IC50 value for each compound was generated. The experiment tested pentamidine, compound 1, and standard-of-care control Cisplatin in full growth media for 8 days. Cells were initially treated with the test compounds on Day 0, and the cells were then replenished with fresh compound dilutions on Day 3. Pentamidine, Compound 1, and cisplatin were tested at 9 concentration points; 100, 33.33, 11.11, 3.70, 1.23, 0.41, 0.14, 0.05, and 0.02 μM (final DMSO concentration=0.5%). In particular, the IC50 values of pentamidine and Compound 1 were 0.8 and 0.6 μM in Hep3B-luc, respectively.
The experiment tested pentamidine, Compound 1, and standard of care control, cisplatin, in full growth media for 8 days. Hep-3b cells were initially treated with the test compounds on Day 0, and the cells were then replenished with fresh compound dilutions on Day 3. […] The raw data values from the CellTiter-Glo™ cell viability assay expressed in relative luminescence units were normalized to the vehicle for each individual plate, and any reduction in luminescence indicated a decrease in viability (%). The data was analyzed in GraphPad PRISM using a non-linear sigmoidal plot with variable slope (asymmetric four-point linear regression), and an IC50 value for each compound was generated. […]

What is called IC50 is the concentration needed to halve the response being measured. The low end stands for inhibition by little substance, the high end for a need for much substance. Take `N=C(N)c1ccc(OCCCCCOc2ccc(C(=N)N)nc2)cc1` [Compound 1, 5-(5-(4-carbamimidoylphenoxy)pentyloxy)picolinimidamide]: the half-maximal inhibitory concentration (IC50) turned out to be 1.7 µM with NCI-H209; 0.858 µM with NCI-H69; 1.17 µM in the assay with A498; 0.37 µM in the assay with A549; 4.64 µM in the assay on ACHN; 3.42 µM with Caki-1. For the same molecule, the 50% inhibitory concentration (IC50) amounted to 3.11 µM in the assay on DLD-1; 2.67 µM in the assay on HCT 116; 0.59 µM with HLE; 3.2 µM with HUH-1; 0.86 µM in the assay on HUH-6 CLONE5; 0.97 µM with HUH-7. The IC50 was 0.28 µM with Hep3B; 1.27 µM in the assay on JHH-4; 0.65 µM in the assay with JHH-5; 1.6 µM with LN-229; 0.76 µM in the assay on Li-7; 0.64 µM in the assay with MKN45. Further, the IC50 is 1.7 µM in the assay on OS-RC-2; 1.17 µM in the assay on SK-OV-3; 0.22 µM in the assay with SNU-398; 6.28 µM in the assay on SW 156; 5.58 µM in the assay with U-87 MG; 0.6 µM with Hep3B-luc.
